Reference: patent US5840740A, “Aminosterol compounds and a method of treating infection using the aminosterol compounds” (priority 1995, dated 1998)
Entries after “also recorded” stand apart in the source; their conditions may differ.

Experiments:
rabbit NHE1 = test: pH recovery in PS120 fibroblasts transfected with rabbit NHE1; format: cell-based; settings: 5 μg/ml; acid-preloaded
Protocol: (§1) PS120 fibroblasts transfected with rabbit or human NHE1 were grown as described above.

human NHE1 = test: pH recovery in PS120 fibroblasts transfected with human NHE1; format: cell-based; settings: 5 μg/ml; acid-preloaded
Protocol: as §1

[1] = system: bovine pulmonary endothelial cells; test: Growth inhibition of endothelial cells in vitro; format: cell-based; settings: 1 μg/ml; absorbance at 600 nm
[2] = system: human epithelial cell line MCF 10A; test: Growth inhibition of epithelial cells in vitro; format: cell-based; settings: 10 μg/ml; absorbance at 600 nm
[3] = system: human foreskin fibroblasts; test: Growth inhibition of fibroblasts in vitro; format: cell-based; settings: 10 μg/ml; absorbance at 600 nm
[4] = system: human microvascular cells; test: Inhibition of endothelial cell cord formation in vitro; format: cell-based; settings: at cord formation-inhibiting concentrations
Source text: Endothelial cells have the capacity in vitro to form tubular aggregates resembling capillaries in various early stages of formation. This conversion occurs under relatively specific conditions, in which essential growth factors along with an effective substratum are provided. It has been shown that both the interaction of growth factors with the endothelial cell and its attachment to a substratum activate the NHE. The activation of this exchanger is believed to be required for subsequent morphologic transformation of the endothelial cell into a multicellular tubular structure.
To assess the effect of compounds on the cord-like structures formed by human microvascular cells when plated in the presence of VEFG (Vascular Endothelial Growth Factor) and basic fibroblast growth factor on a collagen matrix, a standard cord formation assay was used.

chorioallantoic membrane = test: Chorioallantoic membrane (CAM) model; format: in vivo, chick; settings: for Percentage positive, Assay 1 / Percentage positive, Assay 2: 3-day embryo, some vascular irritation noted
Source text: The growing capillaries within the chorioallantoic membrane model (CAM model) have been used as a system in which to evaluate the effect of agents on their potential to inhibit new vessel growth. Neovascularization occurs most aggressively over the first week of embryonic development. Thereafter capillary growth is characterized by principally "elongation" rather than "de novo" formation.
In the standard assay, agents are applied locally to a region of the embryo over which neovascularization will occur. Agents are assessed by their ability to inhibit this process, as evaluated by visual examination about 7 days after application. […] The assay utilized is described in detail in Auerbach et al., Pharm. Ther. 51, 1991, 1-11.

[5] = system: chick embryo vitelline capillaries; test: Chick embryo vitelline capillary regression assay; format: in vivo; design: key to vascular reactivity (capillary regression): +: Vascular reactivity; 0: No vascular reactivity; +/-: Equivocal reactivity; settings: for vascular reactivity (capillary regression): 60 min
In short: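 Each compound was applied onto 3-day chick embryos in 0.1 ml 15% Ficol 400 in PBS. Regression of vitelline capillaries was scored visually after 60 minutes.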

B16 melanoma = B16 melanoma growth in C57B mice; format: in vivo, mouse
Protocol: The growth of B16 melanoma in C57B mice is dependent upon neovascularization.
Using the growth of B16 melanoma cells in C57B mice, a recognized model for the evaluation of inhibitors of angiogenesis on the growth of cancers, the effects of subcutaneous, intraperitoneal and oral administration of squalamine were evaluated.
In this model, there was observed little evidence of metastasis with or without treatment with chemotherapeutic agents.
Based on the idea that tumor growth involves both the clonal expansion of a malignant cell along with the development of a supporting vascular supply, a combination of compound 1436 with squalamine was tested to determine whether it would achieve a synergistic effect on solid tumor growth. This concept was evaluated in the B16 melanoma model.
Animals were implanted with B16 melanoma followed by treatment with compound 1436 or 1256 administered in a combined schedule or separately. […] Thus, a combination of these two compounds achieves a therapeutic benefit in tumors dependent on neovascularization that may prevent metastatic spread.

melanoma 1205Lu = test: Human melanoma growth in immunocompromised RAG-1 mice; format: in vivo, human tumor in RAG-1 mice; settings: 10, 20, 40 mg/kg/d (FIG. 5)
Source text: As apparent from FIG. 5, melanoma 1205Lu develops aggressively in RAG-1 mice after implantation.

[6] = system: PHA-stimulated human lymphocytes; test: Inhibition of mitogen (PHA)-stimulated growth of human T-cells; format: cell-based; settings: in words; 10 μg/ml
Source text: Results are tabulated below.

[7] = Fasting blood glucose in mice; format: in vivo, mouse (male CD-1); settings: 2 x 10 mg/kg i.v. (total 20 mg/kg), 30 min after 2d dose; in H2O (1437, 1256) or D5W (1436)
Protocol: To study the effect of steroid administrator or the NHE responsible for secretion of insulin, several of the aminosterols from shark liver were administered to fasting mice. Male CD-1 mice were assigned to one of four treatment groups. Whole blood glucose was tested using glucometer (Lifescan Glucometer II and One Touch test strips). Statistical analysis was via one-way analysis of variance (ANOVA) followed by subsequent Bonferonni's t-test.

[8] = system: human coronary artery smooth muscle; test: Proliferation of human coronary artery smooth muscle in vitro; format: cell-based; settings: in words (1436: about 11 μg/ml)
Source text: Aminosterols of the invention may also have utility in inhibiting the growth factor mediated proliferation of smooth muscle within the artery. Following coronary angioplasty, reocclusion commonly occurs, secondary to reparative proliferation of the vascular smooth muscle within the wall of the surgically manipulated blood vessel. This process generally takes place over the course of 7-10 days. To evaluate whether an agent could prevent the growth factor mediated proliferation of smooth muscle within the artery, compound 1436 was evaluated in vitro for its effect on the proliferation of human coronary artery smooth muscle. Results for compound 1436 are shown in FIG. 13, and those for squalamine are shown in FIG. 14, with FIG. 15 being a composite logarithmic plot.

B16 = test: Cytostatic activity against B16 in culture; format: cell-based, murine
Xenopus tadpole = settings: stage 59-60, 10 μg/ml
[9] = system: bacteria, fungi and protozoa; settings: background; cited from earlier work
[10] = system: human umbilical venous endothelial cells; test: LPS-induced neutrophil adherence to endothelial cells; settings: squalamine 10, 1.0 or 0.1 μg; three subjects
Protocol: To determine if squalamine inhibited this particular endothelial cell function, standard adhesion assays were performed as outlined in Gamble et al., J. Imm. […] In these experiments, approximately 2×10^5 human umbilical venous cells (passage 2-6) were plated per well. The cells were grown in serum-free media overnight. For induction, either TNF-α (40 ng/ml) was added to endothelial cells for 6 hours prior to adding neutrophils or LPS (100 ng/ml) was added for 4-6 hours. […] After activation of the endothelial cells, approximately 50×10^6 neutrophils were added per well. The plates were gently rocked for 30 minutes at room temperature, followed by removal of the media and washing in serum-free media three times and then photographing of each well. Experiments to test the effects of squalamine were performed by adding squalamine at 10 μg, 1.0 μg, or 0.1 μg at the time of adding LPS or TNF-α. A second repeat dose of squalamine was added at the time of adding neutrophils. A monoclonal Ab to ICAM-1 was a positive control.

rabbit NHE3 = rabbit NHE3 (Oryctolagus cuniculus, UniProt P26432); settings: 5 μg/ml squalamine; cells not acid-preloaded
Chain of rabbit NHE3 (P26432 30-832): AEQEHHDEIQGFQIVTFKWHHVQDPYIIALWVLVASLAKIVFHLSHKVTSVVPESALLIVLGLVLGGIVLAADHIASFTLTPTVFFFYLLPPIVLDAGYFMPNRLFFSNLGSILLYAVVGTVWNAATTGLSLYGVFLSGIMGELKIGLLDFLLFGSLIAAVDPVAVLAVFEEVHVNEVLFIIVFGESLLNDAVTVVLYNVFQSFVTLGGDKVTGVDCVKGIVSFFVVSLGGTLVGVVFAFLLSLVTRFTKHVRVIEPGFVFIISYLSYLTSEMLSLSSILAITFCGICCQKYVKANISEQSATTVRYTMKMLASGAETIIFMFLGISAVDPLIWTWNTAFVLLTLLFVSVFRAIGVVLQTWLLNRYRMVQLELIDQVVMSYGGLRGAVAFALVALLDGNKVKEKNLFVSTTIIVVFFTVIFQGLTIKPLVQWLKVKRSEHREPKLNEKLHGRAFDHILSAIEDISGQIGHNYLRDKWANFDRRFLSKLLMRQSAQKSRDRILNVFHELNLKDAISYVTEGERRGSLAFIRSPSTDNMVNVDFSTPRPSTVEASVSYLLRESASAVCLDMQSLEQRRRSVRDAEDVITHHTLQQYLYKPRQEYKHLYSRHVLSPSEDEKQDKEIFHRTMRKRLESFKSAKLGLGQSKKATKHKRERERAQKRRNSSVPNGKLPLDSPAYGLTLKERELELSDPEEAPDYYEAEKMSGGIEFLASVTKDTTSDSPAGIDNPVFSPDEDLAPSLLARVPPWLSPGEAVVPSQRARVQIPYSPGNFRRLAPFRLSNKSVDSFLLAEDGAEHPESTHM
Protocol: For cells not acid-preloaded, the actual internal pH value was monitored as a function of time following addition of squalamine, with the results depicted in FIG. 1B.
PS120 fibroblasts transfected with rabbit NHE3 were grown and acid preloaded by exposure to 40 mM NH4 C1 as described above in conjunction with FIGS. 1A and 1B. Internal cellular pH changes expressed as the rate of pH recovery as a function of restored extracellular sodium ion concentration following exposure to 10 μg/ml of the compound were assayed with the fluorescent dye BCECF-AM as described above.

CC(C)[C@@H](CC[C@@H](C)[C@H]1CC[C@H]2[C@@H]3[C@H](O)C[C@H]4C[C@@H](NCCCNCCCCN)CC[C@]4(C)[C@H]3CC[C@]12C)OS(=O)(=O)O [Squalamine, squalamine]
inhibition of rabbit NHE1 (rabbit NHE1): no inhibitory activity; also recorded: lack of inhibition of rabbit sodium/proton exchanger isoform 1 (NHE1)
inhibition of human NHE1 (human NHE1): no inhibitory activity; also recorded: lack of inhibition of human NHE1
growth inhibition [1]: inhibited the growth
growth inhibition [2]: no effect
growth inhibition [3]: no effect
effect on cell viability or proliferation [4]: does not appear to profoundly affect cell viability or proliferation
Percentage positive, Assay 1 (chorioallantoic membrane; 20 μg applied): 52 Percentage
Percentage positive, Assay 2 (chorioallantoic membrane; 20 μg applied): 58 Percentage
Percentage positive, Assay 1 (chorioallantoic membrane; 40 μg applied): 50 Percentage
Percentage positive, Assay 2 (chorioallantoic membrane; 40 μg applied): 13 Percentage
Percentage positive (chorioallantoic membrane; 13-day embryo, 5.0 μg applied, positive/total): 0/26
vascular reactivity (capillary regression) ([5]; 0.001 μg applied): 0
vascular reactivity (capillary regression) ([5]; 0.01 μg applied): +
vascular reactivity (capillary regression) ([5]; 0.1 μg applied): +
vascular reactivity (capillary regression) ([5]; 1 μg applied): +
vascular reactivity (capillary regression) ([5]; 10 μg applied): +
effect on chick embryo vessels / blood ([5]; in words): disrupt vitelline capillaries in 3- to 5-day chick embryos
effect on chick embryo vessels / blood ([5]; in words, listed as squalamine): especially active
hemorrhage / hemolysis / heartbeat in chick embryo ([5]; in words, listed as squalamine): No hemorrhage was seen; also recorded: absence of hemolysis; also recorded: The embryonic heart continued to beat vigorously
body weight and hematologic parameters (B16 melanoma; s.c., i.p. or oral squalamine): no significant depression
effect on B16 tumor volume, single agent and combination (B16 melanoma; squalamine 5 mg/kg/day, compound 1436 10 mg/kg/every 3 days): no significant impact on tumor volume
suppression of B16 melanoma tumor growth (B16 melanoma; squalamine subcutaneous, intraperitoneal, oral): a dose-dependent suppression of tumor volume; also recorded: suppression of the growth of murine melanoma
suppression of human melanoma growth (melanoma 1205Lu): suppress the growth of melanoma 1205Lu in RAG-1 mice in a dose-dependent fashion; also recorded: clear suppression of tumor growth in a dose-dependent fashion
suppression of human melanoma growth (melanoma 1205Lu; listed as squalamine): After cessation of treatment, tumor growth continued at a rate similar to untreated controls
inhibition of blast transformation [6]: Some effect
Fasting Blood Glucose Mean ± SEM [7]: 65 ± 7.3 mg/dL
growth suppression / viability of smooth muscle cells [8]: suppress in vitro the growth of human coronary artery smooth muscle
cytostatic activity against B16 (B16): minimal cytostatic activity against B16 in culture, except at very high concentrations
time to death (Xenopus tadpole): ≤ 2 h
pharmacological response in tadpole (Xenopus tadpole; in words, listed as Compound 1256 (Squalamine)): Vascular occlusion in fine capillaries of tail. No effect on vascular flow through hands or feet.
antibiotic spectrum [9]: broad-spectrum antibiotic, killing bacteria, fungi and protozoa
inhibition of neutrophil adherence [10]: no inhibition
resting internal pH (rabbit NHE3): the resting pH of these cells was also inhibited
